Data reported in patent US20200299155A1, “BIOCIDAL COMPOSITIONS INCLUDING A PHOSPHONIUM QUATERNARY CATIONIC SURFACTANT AND METHODS FOR USING SAME” (Rhodia Operations, priority 2019, published 2020).

Columns and labels:
[1] = Physical compatibility studies (mixtures in vials, visual); format: physicochemical; details: for compatibility with VDPA copolymer: in the presence of VDPA copolymer
Description: A first set of samples was made by combining Didecyldimethylammonium chloride (DDAC) Ammonium Quaternary Cationic Surfactant, and Tributyl Tetradecyl Phosphonium Chloride (TTPC). These ingredients were combined in a 20 mL borosilicate vial with a plastic cap to a total volume of 10 mLs so that the final concentration of DDAC was 5 wt. % active ingredient and the final concentration of TTPC was 1 wt. % active ingredient. The total volume was achieved by mixing with tap water (WTW). Samples were mixed, capped, and shaken vigorously and allowed to sit at room temperature for up to 24 hours. […] All weight percent values in the examples are wt. % active ingredient.
Another test sample consisted of 20 wt. % THPS, 2 wt. % VDPA copolymer biopenetrant, 4 wt. % DDAC, 4 wt. % TTPC, and 35 wt. % Ethylene Glycol Monobutyl Ether (EGMBE, which was used as a mutual solvent) (wt. % active ingredients) and was mixed as were the samples of Example 1 and brought to a total volume of 13.9 mLs with tap water (WTW).
(§1) Two additional samples were made. One was TTPC aqueous solution (50 wt. % a.i.) which was TTPC alone with the balance water (labelled TTPC). The other sample was made of 95 wt. % TTPC aqueous solution (50 wt. % a.i.) combined with a 5 wt. % VDPA copolymer aqueous solution (50 wt. % a.i.)(labelled TTPC+ESL). Thus, the final concentration on an active ingredient basis was 47.5% wt. % TTPC and 2.5 wt. % VDPA copolymer with the balance water. This comparison was made to determine the compatibility of the mixture without mutual solvent.

[2] = system: Pseudomonas aeruginosa; experiment: Biocidal efficacy study, Modified Robbins Device culture/biofilm; format: cell-based; details: 100 ppm dosed, FIG. 4
Description: To test biocidal efficacy of TTPC in the presence of VDPA anionic copolymer two additional samples were made. One was 50 wt. % TTPC (a.i.) alone with the balance water (labelled TTPC). The other was TTPC combined with VDPA copolymer with the balance water (labelled TTPC A) which was 47.5% TTPC (a.i.) and 2.5% VDPA copolymer biopenetrant. A standard biofilm was grown with Pseudomonas aeruginosa, a known biofilm former and General Heterotrophic Bacteria (GHB), and treated with either the TTPC or TTPC A Series samples. Pseudomonas aeruginosa was cultured in a media of tryptone soy broth and grown at room temperature with gentle stirring. This culture solution was slowly passed through a Modified Robbins Device (MRD) from Tyler Research for approximately 6 weeks to establish a robust biofilm. Once the film was established, 100 ppm of TTPC Series or TTPC A Series was dosed to the biofilms and the efficacy of the biocide on the microorganisms was measured as shown in FIG. 4.

[3] = Storage stability of TTPC+ESL mixture at different temperatures; format: physicochemical; details: −25° C.
Excerpt: as §1
However, the sample was frozen at −25° C. TTPC was also frozen at −25 C.

| Compound | compatibility with VDPA copolymer [1] | efficacy against planktonic bacteria [2] | state of sample at low temperature [3] | physical compatibility / appearance in tap water ([1]; balance tap water (WTW), room temperature, up to 24 hours) | solubility in water ([1]; water) |
| --- | --- | --- | --- | --- | --- |
| alkyldimethylbenzylammonium chloride [ADBAC] | will precipitate |  |  |  |  |
| CCCCCCCCCCCCCC[P+](CCCC)(CCCC)CCCC.Cl [TTPC, tributyl-tetradecylphosphonium chloride] |  | effective | frozen |  |  |
| CCCCCCCCCC[N+](C)(C)CCCCCCCCCC.[Cl-] [DDAC, Didecyldimethylammonium chloride] | will precipitate |  |  | some cloudiness | sparingly soluble in water |
